Here are results for 21 compounds from patent publication US20090170886A1 (Pfizer Inc, priority 2005, published 2009).

Assay [1] concerns the target T1, hAR (human androgen receptor, baculovirus/Sf9 generated extracts) (Homo sapiens, UniProt P10275).
T1 construct: made in house; host or cells: baculovirus/Sf9 insect cells (crude extract)
T1 sequence (P10275 1-920): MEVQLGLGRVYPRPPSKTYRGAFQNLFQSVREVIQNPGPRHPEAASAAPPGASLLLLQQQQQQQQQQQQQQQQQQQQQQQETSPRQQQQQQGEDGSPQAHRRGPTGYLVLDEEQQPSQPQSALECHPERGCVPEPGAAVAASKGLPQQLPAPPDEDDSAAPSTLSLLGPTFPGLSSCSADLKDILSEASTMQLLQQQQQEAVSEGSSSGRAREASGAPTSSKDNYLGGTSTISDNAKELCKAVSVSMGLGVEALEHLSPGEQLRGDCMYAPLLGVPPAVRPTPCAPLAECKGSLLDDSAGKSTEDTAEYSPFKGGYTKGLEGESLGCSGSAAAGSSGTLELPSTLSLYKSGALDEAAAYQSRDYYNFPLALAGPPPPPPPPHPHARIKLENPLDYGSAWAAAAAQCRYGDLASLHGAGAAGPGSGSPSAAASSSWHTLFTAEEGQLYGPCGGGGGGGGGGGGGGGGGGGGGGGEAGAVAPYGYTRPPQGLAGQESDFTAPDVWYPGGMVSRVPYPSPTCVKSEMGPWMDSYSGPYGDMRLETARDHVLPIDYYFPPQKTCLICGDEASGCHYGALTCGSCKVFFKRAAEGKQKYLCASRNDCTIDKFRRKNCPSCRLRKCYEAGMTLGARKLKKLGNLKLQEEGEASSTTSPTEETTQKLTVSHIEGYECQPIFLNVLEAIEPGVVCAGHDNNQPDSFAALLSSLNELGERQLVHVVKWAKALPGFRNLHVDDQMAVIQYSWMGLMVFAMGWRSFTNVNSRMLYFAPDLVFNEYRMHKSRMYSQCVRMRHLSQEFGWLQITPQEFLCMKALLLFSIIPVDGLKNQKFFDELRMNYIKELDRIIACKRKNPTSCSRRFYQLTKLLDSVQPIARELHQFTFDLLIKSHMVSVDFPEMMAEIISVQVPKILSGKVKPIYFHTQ
Nature of the assay: AR Binding Assay (competitive binding with 3H-DHT tracer). Particulars: 1 nM 3H-DHT, one hour at 4° C., mean of multiple tests. Here is the method: The compounds of Formula I have affinity for the androgen receptor. […] The description below describes how the assay was carried out.
Competitive binding analysis was performed on baculovirus/Sf9 generated hAR extracts in the presence or absence of different concentrations of test agent and a fixed concentration of ^3H-dihydrotestosterone (^3H-DHT) as tracer. This binding assay method is a modification of a protocol previously described (Liao S., et. al., J. Steroid Biochem., 20:11-17, 1984). Briefly, progressively decreasing concentrations of compounds are incubated in the presence of hAR extract (Chang et al., P.N.A.S., Vol. 89, pp. 5546-5950, 1992), hydroxylapatite, and 1 nM ^3H-DHT for one hour at 4° C. Subsequently, the binding reactions are washed three times to completely remove excess unbound ^3H-DHT. hAR bound ^3H-DHT levels are determined in the presence of compounds (i.e. competitive binding) and compared to levels bound when no competitor is present (i.e. maximum binding). Compound binding affinity to the hAR is expressed as the concentration of compound at which one half of the maximum binding is inhibited. Table II below provides the results that were obtained for selected compounds (reported data is the mean of multiple tests as shown below).

In assay [2] the target is T2, androgen receptor in MDA-MB453-MMTV clone 54-19 cells (Homo sapiens, UniProt P10275).
T2 sequence (P10275 1-920 Q868H): T1 sequence (P10275 1-920) with Q868H
Description: AR Antagonist Cell Assay (MMTV-luciferase reporter, DHT-induced). Type of assay: cell-based. The settings on record: MDA-MB453-MMTV clone 54-19, 100 pM DHT, 17 hr; mean of multiple tests. Here is the method:
The compounds ability to antagonize the effects of androgen on the androgen receptor were determined in a whole cell assay as described immediately below.
Cell line: MDA-MB453-MMTV clone 54-19. This cell line is a stable transfected cell line with MDA-MB453 cell background (a human breast tumor cell line expressing androgen receptor). A MMTV minimal promoter containing ARE was first cloned in front of a firefly luciferase reporter gene. Then the cascade was cloned into transfection vector pUV120puro. Electroporation method was used for transfecting MDA-MB-453 cell. Puromycin resistant stable cell line was selected.
Culture medium: DMEM (high glucose, Gibco cat #: 11960-044), 10% FBS, and 1% L-glutamine
Plating medium: DMEM (phenol red free), 10% charcoal treated HyClone serum, 1% L-glutamine
Assay medium: DMEM (phenol red free), 1% charcoal treated HyClone serum, 1% L-glutamine, and 1% penicillin/streptomycin
3× luciferase buffer: 2% beta-mercaptoethanol, 0.6% ATP, 0.0135% luciferine in cell lysis buffer
Cells are maintained in culture medium, splitting cells when they reach 80-90% confluence. To test compounds, 10,000 cells/well are plated to opaque 96 cell culture plate in 100 ul/well plating medium, culture for overnight at 37° C. in cell culture incubator. Carefully remove plating medium, then add 80 ul/well of pre-warmed assay medium, add 10 ul/well testing compound (final concentration at) 1000 nM, 200 nM, 40 nM, 8 nM, 1.6 nM, and 0.32 nM), incubate at 37° C. for 30 minutes. Add 10 ul/well freshly prepared DHT (final concentration at 100 pM) to each well, incubate at 37° C. for 17 hr (overnight). Add 50 ul/well 3× luciferase buffer, incubate at room temperature for 5 minutes, then count on Luminometer. The fold induction over background by 100 pM DHT in the absence of testing compounds is standardized as 100% and experimental result is expressed as percentage of inhibition by testing compounds.
The results are reported as the mean of multiple tests as described below (the numbers of tests are indicated in the footnote). ND denotes that the compound was not tested.
(In a reporter assay the amount or activity of a reporter protein is the signal.)

Setting [3] is: hAR extract, read-out: AR Binding IC50.

Numbering of substitutions follows the chain as printed. Read-outs that look alike come from different tables or passages of the source.

For orientation: IC50 means the concentration that gives 50% inhibition. For `CC(Oc1ccc(C#N)c(C(F)(F)F)c1)c1cccc(O)c1` (racemic) [Example 8, 4-[1-(3-Hydroxyphenyl)ethoxy]-2-(trifluoromethyl)benzonitrile], the IC50 in assay [1] (AR Binding IC50, hAR extract) was determined as 21 nM; in assay [2], 529 nM.

As to `CCC(Oc1ccc(C#N)c(C(F)(F)F)c1)c1cccc(O)c1` (racemic) [Example 11, 4-[1-(3-Hydroxyphenyl)propoxy]-2-(trifluoromethyl)benzonitrile], the concentration for half-maximal inhibition (IC50) was 11 nM in assay [1] (AR Binding IC50, hAR extract) and above 1000 nM in assay [2]. As to `C=CCC(Oc1ccc(C#N)c(C(F)(F)F)c1)c1cccc(O)c1` (racemic) [Example 17, 4-{[1-(3-Hydroxyphenyl)but-3-enyl]oxy}-2-(trifluoromethyl)benzonitrile], the half-inhibitory concentration (IC50) was determined as 14 nM in assay [1] (AR Binding IC50, hAR extract) and 105 nM in assay [2]. Turning to `CC(C)CC(Oc1ccc(C#N)c(C(F)(F)F)c1)c1cccc(O)c1` (racemic) [Example 20, 4-[1-(3-Hydroxyphenyl)-3-methylbutoxy]-2-(trifluoromethyl)benzonitrile], the half-inhibitory concentration (IC50) in assay [1] (AR Binding IC50, hAR extract) was determined as 183 nM; in assay [2], 40 nM. As for `COC(=O)c1ccc(C(C)Oc2ccc(C#N)c(C(F)(F)F)c2)cc1` (racemic) [Example 29, (±)-4-[1-(4-Cyano-3-trifluoromethyl-phenoxy)-ethyl]-benzoic Acid Methyl Ester], the IC50 in assay [1] (setting [3]) worked out at 102 nM; in assay [2], 132 nM. For `CC(Oc1ccc(C#N)c(C(F)(F)F)c1)c1cccnc1` (racemic) [Example 33, 4-(1-Pyridin-3-yl-ethoxy)-2-trifluoromethyl-benzonitrile], the IC50 is 192 nM in assay [1] (AR Binding IC50, hAR extract) and 63 nM in assay [2]. Turning to `CC(Oc1ccc(C#N)c(C(F)(F)F)c1)c1cccc(OC2CCCCO2)c1` (stereo not drawn) [Example 7, 4-{1-[3-(Tetrahydro-2H-pyran-2-yloxy)phenyl]ethoxy}-2-(trifluoromethyl)benzonitrile], the IC50 in assay [1] (setting [3]) turned out to be 383 nM. Turning to `CC(Oc1ccc(C#N)c(C(F)(F)F)c1)c1ccc(Cl)cc1` (stereo not drawn) [Example 23, 4-[1-(4-Chloro-phenyl)-ethoxy]-2-trifluoromethyl-benzonitrile], the IC50 in assay [1] (setting [3]) was 307 nM.

Consider `Cc1ccccc1C(C)Oc1ccc(C#N)c(C(F)(F)F)c1` (stereo not drawn) [Example 27, 4-(1-o-Tolyl-ethoxy)-2-trifluoromethyl-benzonitrile], for which the half-maximal inhibitory concentration (IC50) in assay [1] (setting [3]) turned out to be 439 nM.

Take `CC(Oc1ccc(C#N)c(C(F)(F)F)c1)c1cccc(C(F)(F)F)c1` (stereo not drawn) [Example 32, 2-Trifluoromethyl-4-[1-(3-trifluoromethyl-phenyl)-ethoxy]-benzonitrile]: the IC50 in assay [1] (setting [3]) stood at 214 nM.

For `C[C@@H](Oc1ccc(C#N)cc1Cl)c1ccccc1` [Example 38, (R)-3-Chloro-4-(1-phenyl-ethoxy)-benzonitrile], the IC50 in assay [1] (AR Binding IC50, hAR extract) turned out to be 281 nM. With `C[C@H](Oc1ccc(C#N)cc1Cl)c1ccccc1` [Example 39, (S)-3-Chloro-4-(1-phenyl-ethoxy)-benzonitrile], the IC50 in assay [1] (AR Binding IC50, hAR extract) worked out at 410 nM. `CC(Cc1ccccc1)(Oc1ccc(C#N)cc1Cl)c1ccccc1` (stereo not drawn) [Example 42, 3-Chloro-4-(1-methyl-1,2-diphenyl-ethoxy)-benzonitrile]: in assay [1] (setting [3]), the concentration for half-maximal inhibition (IC50) was 377 nM.

With `COc1ccccc1COc1ccc(C#N)c(C(F)(F)F)c1` [Example 45, 4-(2-Methoxy-benzyloxy)-2-trifluoromethyl-benzonitrile], in assay [2], the IC50 is above 1000 nM. Consider `CCC(C)(Oc1ccc(C#N)c(C(F)(F)F)c1)c1ccccc1` (stereo not drawn) [Example 47, 4-(1-Methyl-1-phenyl-propoxy)-2-trifluoromethyl-benzonitrile], for which the half-maximal inhibitory concentration (IC50) in assay [1] (setting [3]) amounted to 461 nM. For `Cc1cccc(COc2ccc(C#N)c(C(F)(F)F)c2)c1` [Example 52, 4-(3-Methyl-benzyloxy)-2-trifluoromethyl-benzonitrile], the IC50 in assay [1] (setting [3]) was found to be 302 nM. Turning to `Cc1cccc(C)c1C(C)Oc1ccc(C#N)c(Cl)c1` (stereo not drawn) [Example 63, 2-Chloro-4-[1-(2,6-dimethyl-phenyl)-ethoxy]-benzonitrile], the IC50 in assay [1] (setting [3]) was 328 nM. Consider `COc1cc(OC(C)Cc2ccccc2)ccc1C#N` (stereo not drawn) [Example 71A, 2-Methoxy-4-(1-methyl-2-phenyl-ethoxy)-benzonitrile], for which the half-inhibitory concentration (IC50) in assay [1] (setting [3]) came to 306 nM. For `COc1ccc(CCOc2ccc(C#N)c(C(F)(F)F)c2)cc1` [Example 76, 4-[2-(4-Methoxy-phenyl)-ethoxy]-2-trifluoromethyl-benzonitrile], the IC50 in assay [1] (setting [3]) is 281 nM. With `CCCC(Oc1ccc(C#N)c(C(F)(F)F)c1)c1cccc(C)n1` (stereo not drawn) [Example 86, 4-[1-(6-Methyl-pyridin-2-yl)-butoxy]-2-trifluoromethyl-benzonitrile], the half-inhibitory concentration (IC50) in assay [1] (setting [3]) worked out at 330 nM. As to `CCC(Oc1ccc(C#N)c(C(F)(F)F)c1)c1cccc(C)n1` (stereo not drawn) [Example 87, 4-[1-(6-Methyl-pyridin-2-yl)-propoxy]-2-trifluoromethyl-benzonitrile], the IC50 in assay [1] (setting [3]) was 483 nM.
